Reference: patent US9051342B2 (priority 2004, dated 2015)
Several values for one entry are separate records, joined by “and”; a condition that tells them apart may be missing. Equal values may be shown once.

Row | SMILES | melting point
1 | CN(C)c1ccc(-c2cnn(-c3cccc(C(=O)O)c3)c2)cc1 [Compound 110, 3-[4-(4-Dimethylamino-phenyl)-pyrazol-1-yl]-benzoic acid] | 224 to 225 °C
2 | CC(C)c1ccc(-c2ccc(-n3cnc(-c4cccc(C(=O)O)c4)n3)cc2)cc1 [Compound 28, 3-[1-(4′-Isopropyl-biphenyl-4-yl)-1H-[1,2,4]triazol-3-yl]-benzoic acid] | 225 to 228 °C
3 | O=C(O)c1cccc(-c2ccn(-c3cccnc3)n2)c1 [Compound 260, 3-(1-Pyridin-3-yl-1H-pyrazol-3-yl)-benzoic acid] | 235 to 236 °C
4 | O=C(O)c1ccc(-c2ccn(-c3ccccc3OC(F)(F)F)c2)cc1 [Compound 199, 4-[1-(2-Trifluoromethoxy-phenyl)-1H-pyrrol-3-yl]-benzoic acid] | 164 to 165 °C
5 | Cc1ccc(-c2ccn(-c3cccc(C(=O)O)c3)n2)cc1 [Compound 170, 3-(3-p-Tolyl-pyrazol-1-yl)-benzoic acid] | 180 to 182 °C
6 | O=C(O)c1ccc(-c2cnn(-c3ccc4c(c3)OCO4)c2)cc1 [Compound 227, 4-(1-Benzo[1,3]dioxol-5-yl-1H-pyrazol-4-yl)-benzoic acid] | 266 to 268 °C
7 | O=C(O)c1cccc(-n2ccc(-c3ccc(C(F)(F)F)cc3)n2)c1 [Compound 94] | 225 to 227 °C
8 | O=C(O)c1cccc(-n2cc(-c3ccccc3F)cn2)c1 [Compound 84, 3-[4-(2-Fluoro-phenyl)-pyrazol-1-yl]-benzoic acid] | 225 to 226 °C
9 | O=C(O)c1ccc(-c2ccn(-c3cccc(C(F)(F)F)c3)c2)cc1 [Compound 128, 4-[1-(3-Trifluoromethyl-phenyl)-1H-pyrrol-3-yl]-benzoic acid] | 209 to 211 °C
10 | Cc1cccc(-n2ccc(-c3cccc(C(=O)O)c3)n2)c1 [Compound 167, 3-(1-m-Tolyl-1H-pyrazol-3-yl)-benzoic acid] | 162 to 164 °C
11 | O=C(O)c1ccc(-c2cnn(-c3ccc4c(c3)OCCO4)c2)cc1 [Compound 226, 4-[1-(2,3-Dihydro-benzo[1,4]dioxin-6-yl)-1H-pyrazol-4-yl]-benzoic acid] | 238 to 240 °C
12 | O=C(O)c1ccc(-c2cnn(-c3ccc(Cl)cc3)c2)cc1 [Compound 234, 4-[1-(4-Chloro-phenyl)-1H-pyrazol-4-yl]-benzoic acid] | 259 to 261 °C
13 | O=C(O)c1cccc(-c2ccn(-c3cccc(O)c3)n2)c1 [Compound 75, 3-[1-(3-Hydroxy-phenyl)-1H-pyrazol-3-yl]-benzoic acid] | 178 to 190 °C and 178 to 179 °C
14 | COc1ccc2c(c1)-c1cn(-c3cccc(C(=O)O)c3)nc1CC2 [Compound 253, 3-(8-Methoxy-4,5-dihydro-benzo[e]indazol-2-yl)-benzoic acid] | 239 to 241 °C
15 | CN(C)c1cccc(-n2ccc(-c3cccc(C(=O)O)c3)n2)c1 [Compound 164, 3-[1-(3-Dimethylamino-phenyl)-1H-pyrazol-3-yl]-benzoic acid] | 180 to 183 °C
16 | O=C(O)c1cccc(-n2cc(-c3ccncc3)cn2)c1 [Compound 115, 3-(4-Pyridin-4-yl-pyrazol-1-yl)-benzoic acid] | 300 to 302 °C
17 | COc1cccc2c1Cc1cn(-c3cccc(C(=O)O)c3)nc1-2 [Compound 184, 3-(5-Methoxy-4H-indeno[1,2-c]pyrazol-2-yl)-benzoic acid] | 277 to 278 °C
18 | CC(=O)c1ccc(-n2ccc(-c3ccc(C(=O)O)cc3)n2)cc1 [Compound 256, 4-[1-(4-Acetyl-phenyl)-1H-pyrazol-3-yl]-benzoic acid] | 278 to 279 °C
19 | O=C(O)c1ccc(-c2ccn(-c3ccc4c(c3)OCCO4)c2)cc1 [Compound 150, 4-[1-(2,3-Dihydro-benzo[1,4]dioxin-6-yl)-1H-pyrrol-3-yl]-benzoic acid] | 273 to 276 °C
20 | COc1ccc2c(c1)-c1nn(-c3ccc(C(=O)O)cc3)cc1C2 [Compound 149, 4-(7-Methoxy-4H-indeno[1,2-c]pyrazol-2-yl)-benzoic acid] | 304 to 306 °C
21 | O=C(O)c1ccc(-n2ccc(-c3ccccc3)n2)cc1 [Compound 222, 4-(3-Phenyl-pyrazol-1-yl)-benzoic acid] | 244 to 245 °C
22 | N#Cc1cccc(-c2ccn(-c3cccc(C(=O)O)c3)n2)c1 [Compound 78, 3-[3-(3-Cyano-phenyl)-pyrazol-1-yl]-benzoic acid] | 164 to 166 °C
23 | O=C(O)c1cccc(-c2ncn(-c3ccccc3)n2)c1 [Compound 37, 3-(1-Phenyl-1H-[1,2,4]triazol-3-yl)-benzoic acid] | 257 to 259 °C
24 | O=C(O)c1ccc(-c2ccn(-c3ccccc3)c2)cc1 [Compound 130, 4-(1-Phenyl-1H-pyrrol-3-yl)-benzoic acid] | 239 to 241 °C
25 | O=C(O)c1ccc(-n2cc(-c3cccc(Oc4ccccc4)c3)cn2)cc1 [Compound 215, 4-[4-(3-Phenoxy-phenyl)-pyrazol-1-yl]-benzoic acid] | 211 to 213 °C

Row | SMILES | melting point
26 | CC(C)c1ccc(-c2nn(-c3ccc(C(=O)O)cc3)c(=S)s2)cc1 [Compound 282, 4-[5-(4-Isopropyl-phenyl)-2-thioxo-[1,3,4]thiadiazol-3-yl]-benzoic acid] | 176 to 179 °C
27 | O=C(O)c1cccc(-c2cnn(-c3ccc(Cl)cc3)c2)c1 [Compound 83, 3-[1-(4-Chloro-phenyl)-1H-pyrazol-4-yl]-benzoic acid] | 205 to 206 °C
28 | O=C(O)c1cccc(-c2ccn(-c3ccccc3)n2)c1 [Compound 65, 3-(1-Phenyl-1H-pyrazol-3-yl)-benzoic acid] | 202 to 204 °C
29 | O=C(O)c1ccc(-c2ccn(-c3cc(F)ccc3F)c2)cc1 [Compound 245, 4-[1-(2,5-Difluoro-phenyl)-1H-pyrrol-3-yl]-benzoic acid] | 215 to 218 °C
30 | O=C(O)c1cccc(-c2ncn(-c3ccc(OC(F)(F)F)cc3)n2)c1 [Compound 19, 3-[1-(4-Trifluoromethoxy-phenyl)-1H-[1,2,4]triazol-3-yl]-benzoic acid] | 219 to 221 °C
31 | Cc1ccccc1-n1cnc(-c2cccc(C(=O)O)c2)n1 [Compound 40, 3-(1-o-Tolyl-1H-[1,2,4]triazol-3-yl)-benzoic acid] | 209 to 211 °C
32 | O=C(O)c1cccc(-c2ccn(-c3ccc(C(F)(F)F)cc3)n2)c1 [Compound 67, 3-[1-(4-Trifluoromethyl-phenyl)-1H-pyrazol-3-yl]-benzoic acid] | 225 to 227 °C
33 | COc1ccc(-n2cc(-c3cccc(C(=O)O)n3)cn2)cc1 [Compound 53, 6-[1-(4-Methoxy-phenyl)-1H-pyrazol-4-yl]-pyridine-2-carboxylic acid] | 122 to 123 °C
34 | COc1cccc2c1CCc1cn(-c3ccc(C(=O)O)cc3)nc1-2 [Compound 148, 4-(6-Methoxy-4,5-dihydro-benzo[g]indazol-2-yl)-benzoic acid] | 288 to 290 °C
35 | COc1cccc(-c2cnn(-c3cccc(C(=O)O)c3)c2)c1 [Compound 112, 3-[4-(3-Methoxy-phenyl)-pyrazol-1-yl]-benzoic acid] | 157 to 158 °C
36 | Cc1cccc(-c2cnn(-c3ccc(C(=O)O)cc3)c2)c1 [Compound 91, 4-(4-m-Tolyl-pyrazol-1-yl)-benzoic acid] | 251 to 252 °C
37 | O=C(O)c1ccc([N+](=O)[O-])c(-c2cnn(-c3ccc(Cl)cc3)c2)c1 [Compound 56, 3-[1-(4-Chloro-phenyl)-1H-pyrazol-4-yl]-4-nitro-benzoic acid] | 270 to 271 °C
38 | O=C(O)c1ccc(-n2cc(-c3ccc(Br)cc3F)nn2)cc1 [Compound 267, 4-[4-(4-Bromo-2-fluoro-phenyl)-[1,2,3]triazol-1-yl]-benzoic acid] | 327 to 328 °C
39 | O=C(O)c1cccc(-n2cc3c(n2)-c2cccc(OC(F)F)c2C3)c1 [Compound 185, 3-(5-Difluoromethoxy-4H-indeno[1,2-c]pyrazol-2-yl)-benzoic acid] | 240 to 241 °C
40 | O=C(O)c1cccc(-n2cc(-c3ccccc3)cn2)c1 [Compound 98, 3-(4-Phenyl-pyrazol-1-yl)-benzoic acid] | 225 to 226 °C
41 | COc1ccc(-c2ncn(-c3cccc(C(=O)O)c3)n2)cc1 [Compound 11, 3-[3-(4-Methoxy-phenyl)-[1,2,4]triazol-1-yl]-benzoic acid] | 268 to 270 °C
42 | O=C(O)c1cccc(-n2cc3c(n2)-c2ccccc2C3)c1 [Compound 138, 3-(4H-Indeno[1,2-c]pyrazol-2-yl)-benzoic acid] | 249 to 250 °C
43 | O=C(O)c1cccc(-c2ccn(-c3cccc(Br)c3)n2)c1 [Compound 165, 3-[1-(3-Bromo-phenyl)-1H-pyrazol-3-yl]-benzoic acid] | 180 to 183 °C
44 | COc1cccc(-n2ccc(-c3cccc(C#N)c3)n2)c1 [Compound 59, 3-[1-(3-Methoxy-phenyl)-1H-pyrazol-3-yl]-benzonitrile] | 100 to 101 °C
45 | O=C(O)c1ccc(-n2cc(-c3ccccc3Br)nn2)cc1 [Compound 270, 4-[4-(2-Bromo-phenyl)-[1,2,3]triazol-1-yl]-benzoic acid] | 261 to 262 °C
46 | O=C(O)c1ccc(-c2ccn(-c3cccc(F)c3)c2)cc1 [Compound 152, 4-[1-(3-Fluoro-phenyl)-1H-pyrrol-3-yl]-benzoic acid] | 211 to 213 °C
47 | O=C(O)c1cccc(-n2cc(-c3ccc(Cl)cc3)cn2)c1 [Compound 49, 3-[4-(4-Chloro-phenyl)-pyrazol-1-yl]-benzoic acid] | 253 to 254 °C
48 | Cc1ccc(-n2cc(-c3ccc(C(=O)O)cc3)cn2)cc1C [Compound 238, 4-[1-(3,4-Dimethyl-phenyl)-1H-pyrazol-4-yl]-benzoic acid] | 254 to 256 °C
49 | Cc1nc(-c2cccc(C(=O)O)c2)nn1-c1ccc(Br)cc1 [Compound 33, 3-[1-(4-Bromo-phenyl)-5-methyl-1H-[1,2,4]triazol-3-yl]-benzoic acid] | 295 to 298 °C
50 | O=C(O)c1cccc(-n2cc3c(n2)CCc2ccccc2-3)c1 [Compound 141, 3-(4,5-Dihydro-benzo[e]indazol-2-yl)-benzoic acid] | 233 to 234 °C
